Data reported in patent US20230212549A1, “COMPOUNDS COMPRISING A […] LIGAND AND USE THEREOF” (priority 2021, published 2023).
Numbered stars: 1 amine (or outer) side, 2 acyl side, 3 side chain; on linkers, the order of the positions; unused ones are H or OH. Bridge positions count the residues as written; N and C are the ends. Square brackets hold non-standard residues; d marks the D form. Peptide text beside a SMILES is read from it. * marks the point of attachment. X17 = NC(=O)[C@H](CCCCNC(=O)CN1CCN(CC(=O)O)CCN(CC(=O)O)CCN(CC(=O)O)CC1)NC(=O)CCC(=O)NCCCOCCOCCOCCCN*; TBMB(SCH2CH2NH-DOTA) = O=C(O)CN1CCN(CC(=O)O)CCN(CC(=O)NCCSCc2cc(C[*:1])cc(C[*:2])c2)CCN(CC(=O)O)CC1; X13 = O=C(O)CN1CCN(CC(=O)O)CCN(CC(=O)N2CCN(Cc3cc(C[*:1])cc(C[*:2])c3)CC2)CCN(CC(=O)O)CC1; X18 = NCCNCC(CNCCN)C(=O)N[C@@H](CCC(=O)O)C(=O)NCCCOCCOCCOCCCN*; mXylylene = c1cc(C[*:1])cc(C[*:2])c1; Pentanesulfonyl = CCCCCS(=O)(=O)*; Suc = O=C(CCC(=O)[*:2])[*:1]; Nle = CCCC[C@H](N)C(=O)O; Hexanoyl = CCCCCC(=O)*; CO = O=C([*:1])[*:2]; Sar = CNCC(=O)O; NHBu = CCCCN*

Tests used:
[1] = target: T1, FAP-expressing human WI-38 fibroblasts (Homo sapiens, UniProt Q12884); test: Competitive FACS binding assay
T1 construct: FAP-expressing human WI-38 fibroblasts (ECACC) were cultured in EMEM; host or cells: WI-38 human fibroblasts
Procedure: Cells were analyzed in an Attune NxT flow cytometer. […] […].
Cells were analyzed in an Attune NxT flow cytometer. […]

[2] = target: T2, Human recombinant FAP (Homo sapiens, UniProt Q12884); test: Surface plasmon resonance (Biacore) assay; format: binding
[3] = target: T2, Human recombinant FAP; test: FRET-based FAP protease activity assay; format: biochemical; set-up: purchased R&D systems 3715-SE
[4] = in vivo; conditions: female, athymic nude, mouse, iv
[5] = pIC50 Category (Activity), FRET-based FAP protease activity assay, recombinant human FAP, 37° C.
[6] = pIC50 Category (Activity), FRET-peptide substrate, 37° C.

T2 sequence (Q12884 whole entry): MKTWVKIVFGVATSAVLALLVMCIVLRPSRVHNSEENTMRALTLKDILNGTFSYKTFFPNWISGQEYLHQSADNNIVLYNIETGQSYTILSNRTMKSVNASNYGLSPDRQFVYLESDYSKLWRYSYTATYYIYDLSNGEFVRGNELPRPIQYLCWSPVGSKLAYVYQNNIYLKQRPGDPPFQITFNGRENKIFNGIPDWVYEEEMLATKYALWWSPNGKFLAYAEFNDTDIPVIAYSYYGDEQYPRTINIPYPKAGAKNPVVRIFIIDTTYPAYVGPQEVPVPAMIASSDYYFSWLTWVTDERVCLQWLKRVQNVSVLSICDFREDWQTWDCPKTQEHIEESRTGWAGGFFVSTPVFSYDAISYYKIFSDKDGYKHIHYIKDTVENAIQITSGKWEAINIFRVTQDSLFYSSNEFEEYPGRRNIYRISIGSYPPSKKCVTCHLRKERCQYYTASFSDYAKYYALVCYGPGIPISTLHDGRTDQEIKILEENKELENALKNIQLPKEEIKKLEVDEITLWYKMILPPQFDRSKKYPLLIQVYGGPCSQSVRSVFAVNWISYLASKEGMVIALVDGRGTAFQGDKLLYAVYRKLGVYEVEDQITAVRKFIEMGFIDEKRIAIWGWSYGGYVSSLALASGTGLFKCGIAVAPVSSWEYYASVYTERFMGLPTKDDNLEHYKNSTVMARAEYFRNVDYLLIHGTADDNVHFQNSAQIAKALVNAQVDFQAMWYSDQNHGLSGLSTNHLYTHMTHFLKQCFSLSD
T1 sequence (Q12884 whole entry): as above

Row | SMILES | IC50 [1] [nM] | Kd [2] [nM] | IC50 [3, 5] [nM] | IC50 [3, 6] [nM] | further results
1 | CCCCCC(=O)N[C@H]1CSCc2cc(CSCCNC(=O)CN3CCN(CC(=O)O)CCN(CC(=O)O)CCN(CC(=O)O)CC3)cc(c2)CSC[C@@H](C(=O)O)NC(=O)[C@H](Cc2ccccc2C(F)(F)F)NC(=O)[C@H](CCC(N)=O)NC(=O)[C@H]([C@@H](C)O)NC(=O)[C@@H]2CCCN2C(=O)[C@@H]2CCCN2C1=O [3BP-3680, Hex-[Cys(tMeBn(DOTA-AET))-Pro-Pro-Thr-Gln-Otf-Cys]-OH] | < 10 | < 10 | < 10 | – | –
2 | CCCCCC(=O)N[C@H]1CSCc2cc(CSCCNC(=O)CN3CCN(CC(=O)O)CCN(CC(=O)O)CCN(CC(=O)O)CC3)cc(c2)CSC[C@@H](C(=O)N[C@H](CC(=O)O)C(N)=O)NC(=O)[C@H](Cc2ccccc2)NC(=O)[C@H](CCC(N)=O)NC(=O)[C@H]([C@@H](C)O)NC(=O)[C@@H]2CCCN2C(=O)[C@@H]2CCCN2C1=O [3BP-3681, Hex-[Cys(tMeBn(DOTA-AET))-Pro-Pro-Thr-Gln-Phe-Cys]-asp-NH2] | < 10 | < 10 | < 10 | – | –
3 | CCCCCC(=O)N[C@H]1CSCc2cc(CSCCNC(=O)CN3CCN(CC(=O)O)CCN(CC(=O)O)CCN(CC(=O)O)CC3)cc(c2)CSC[C@@H](C(=O)O)NC(=O)[C@H](Cc2ccccc2)NC(=O)[C@H](CCC(N)=O)NC(=O)[C@H]([C@@H](C)O)NC(=O)[C@@H]2CCCN2C(=O)CN(C)C1=O [3BP-3678, Hex-[Cys(tMeBn(DOTA-AET))-Nmg-Pro-Thr-Gln-Phe-Cys]-OH] (Hexanoyl-C[Sar]PTQFC-OH; linker 1-7 via TBMB(SCH2CH2NH-DOTA)) | < 10 | < 10 | < 10 | – | –
4 | CCCCCC(=O)N[C@H]1CSCc2cc(CSCCNC(=O)CN3CCN(CC(=O)O)CCN(CC(=O)O)CCN(CC(=O)O)CC3)cc(c2)CSC[C@@H](C(=O)O)NC(=O)[C@H](Cc2ccccc2)NC(=O)[C@H](CCC(N)=O)NC(=O)[C@H]([C@@H](C)O)NC(=O)[C@@H]2C[C@@H](O)CN2C(=O)[C@@H]2CCCN2C1=O [3BP-3679, Hex-[Cys(tMeBn(DOTA-AET))-Pro-Hyp-Thr-Gln-Phe-Cys]-OH] | < 10 | < 10 | < 10 | – | –
5 | CCCCCC(=O)N[C@H]1CSCc2cc(CSCCNC(=O)CN3CCN(CC(=O)O)CCN(CC(=O)O)CCN(CC(=O)O)CC3)cc(c2)CSC[C@@H](C(=O)N(C)CC(=O)O)NC(=O)[C@H](Cc2ccccc2)NC(=O)[C@H](CCC(N)=O)NC(=O)[C@H]([C@@H](C)O)NC(=O)[C@@H]2CCCN2C(=O)[C@@H]2CCCN2C1=O [3BP-3659, Hex-[Cys(tMeBn(DOTA-AET))-Pro-Pro-Thr-Gln-Phe-Cys]-Nmg-OH] | < 10 | < 10 | < 10 | – | –
6 | CCCCCC(=O)N[C@H]1CSCc2cc(CSCCNC(=O)CN3CCN(CC(=O)O)CCN(CC(=O)O)CCN(CC(=O)O)CC3)cc(c2)CSC[C@@H](C(N)=O)NC(=O)[C@H](Cc2ccccc2)NC(=O)[C@H](CCC(=O)O)NC(=O)[C@H]([C@@H](C)O)NC(=O)[C@@H]2CCCN2C(=O)[C@@H]2CCCN2C1=O [3BP-3653, Hex-[Cys(tMeBn(DOTA-AET))-Pro-Pro-Thr-Glu-Phe-Cys]-NH2] (Hexanoyl-CPPTEFC-NH2; linker 1-7 via TBMB(SCH2CH2NH-DOTA)) | < 10 | < 10 | < 10 | – | –
7 | CCCCNC(=O)N[C@H]1CSCc2cc(CSCCNC(=O)CN3CCN(CC(=O)O)CCN(CC(=O)O)CCN(CC(=O)O)CC3)cc(c2)CSC[C@@H](C(N)=O)NC(=O)[C@H](Cc2ccccc2)NC(=O)[C@H](CCC(N)=O)NC(=O)[C@H]([C@@H](C)O)NC(=O)[C@@H]2CCCN2C(=O)CN(C)C1=O [3BP-4621, nBu-CAyl-[Cys(tMeBn(DOTA-AET))-Nmg-Pro-Thr-Gln-Phe-Cys]-NH2] ({NHBu-CO}-C[Sar]PTQFC-NH2; linker 1-7 via TBMB(SCH2CH2NH-DOTA)) | < 10 | < 10 | – | < 10 | –
8 | CCCC[C@H](NC(=O)CCC(=O)NCCCOCCOCCOCCCNC(=O)[C@H](CCC(=O)O)NC(=O)C(CNCCN)CNCCN)C(=O)N[C@H]1CSCc2cccc(c2)CSC[C@@H](C(=O)O)NC(=O)[C@H](Cc2ccccc2)NC(=O)[C@H](CCC(=O)O)NC(=O)[C@H]([C@@H](C)O)NC(=O)[C@@H]2CCCN2C(=O)[C@@H]2CCCN2C1=O [3BP-4222, N4Ac-Glu-Ttds-Nle-[Cys-(3MeBn)-Pro-Pro-Thr-Glu-Phe-Cys]-OH] ({X18-Suc}-[Nle]CPPTEFC-OH; linker 2-8 via mXylylene) | 10 to 79.4 | < 10 | – | 10 to 79.4 | –
9 | CC(C)CCC(=O)N[C@H]1CSCc2cc(CSCCNC(=O)CN3CCN(CC(=O)O)CCN(CC(=O)O)CCN(CC(=O)O)CC3)cc(c2)CSC[C@@H](C(=O)O)NC(=O)[C@H](Cc2ccccc2)NC(=O)[C@H](CCC(N)=O)NC(=O)[C@H]([C@@H](C)O)NC(=O)[C@@H]2CCCN2C(=O)[C@@H]2CCCN2C1=O [3BP-3907, iHex-[Cys(tMeBn(DOTA-AET))-Pro-Pro-Thr-Gln-Phe-Cys]-OH] | < 10 | < 10 | – | < 10 | pKD Category ([2]; Biacore assay): A (Category A stands for pKD values >8.0)
10 | CCCCCS(=O)(=O)N[C@H]1CSCc2cc(cc(CN3CCN(C(=O)CN4CCN(CC(=O)O)CCN(CC(=O)O)CCN(CC(=O)O)CC4)CC3)c2)CSC[C@@H](C(=O)N[C@@H](CC(=O)O)C(N)=O)NC(=O)[C@H](Cc2ccccc2)NC(=O)[C@H](CCC(N)=O)NC(=O)[C@H]([C@@H](C)O)NC(=O)[C@@H]2CCCN2C(=O)[C@@H]2CCCN2C1=O [3BP-3692, Pentyl-SO2-[Cys(tMeBn(DOTA-PP))-Pro-Pro-Thr-Gln-Phe-Cys]-Asp-NH2] (Pentanesulfonyl-CPPTQFCD-NH2; linker 1-7 via X13) | < 10 | < 10 | < 10 | – | –
11 | CCCCNC(=O)N[C@H]1CSCc2cc(cc(CN3CCN(C(=O)CN4CCN(CC(=O)O)CCN(CC(=O)O)CCN(CC(=O)O)CC4)CC3)c2)CSC[C@@H](C(=O)O)NC(=O)[C@H](Cc2ccccc2)NC(=O)[C@H](CCC(N)=O)NC(=O)[C@H]([C@@H](C)O)NC(=O)[C@@H]2CCCN2C(=O)[C@@H]2CCCN2C1=O [3BP-4564, nBu-CAyl-[Cys(tMeBn(DOTA-PP))-Pro-Pro-Thr-Gln-Phe-Cys]-OH] | < 10 | < 10 | – | < 10 | –
12 | CCCCOC(=O)N[C@H]1CSCc2cc(CSCCNC(=O)CN3CCN(CC(=O)O)CCN(CC(=O)O)CCN(CC(=O)O)CC3)cc(c2)CSC[C@@H](C(=O)O)NC(=O)[C@H](Cc2ccccc2)NC(=O)[C@H](CCC(N)=O)NC(=O)[C@H]([C@@H](C)O)NC(=O)[C@@H]2CCCN2C(=O)[C@@H]2CCCN2C1=O [3BP-3941, nBu-COyl-[Cys(tMeBn(DOTA-AET))-Pro-Pro-Thr-Gln-Phe-Cys]-OH] | < 10 | < 10 | – | < 10 | –
13 | CCCCCC(=O)N[C@H]1CSCc2cccc(c2)CSC[C@@H](C(=O)N[C@@H](CC(=O)O)C(=O)NCCCOCCOCCOCCCNC(=O)CCC(=O)N[C@@H](CCCCNC(=O)CN2CCN(CC(=O)O)CCN(CC(=O)O)CCN(CC(=O)O)CC2)C(N)=O)NC(=O)[C@H](Cc2ccccc2)NC(=O)[C@H](CCC(N)=O)NC(=O)[C@H]([C@@H](C)O)NC(=O)[C@@H]2CCCN2C(=O)[C@@H]2CCCN2C1=O [3BP-3395, Hex-[Cys(3MeBn)-Pro-Pro-Thr-Gln-Phe-Cys]-Asp-Ttds-Lys(DOTA)-NH2] (Hexanoyl-CPPTQFCD-X17; linker 1-7 via mXylylene) | < 10 | < 10 | < 10 | – | –
14 | CCCCNC(=O)N[C@H]1CSCc2cc(CSCCNC(=O)CN3CCN(CC(=O)O)CCN(CC(=O)O)CCN(CC(=O)O)CC3)cc(c2)CSC[C@@H](C(=O)O)NC(=O)[C@H](Cc2ccccc2)NC(=O)[C@H](CCC(N)=O)NC(=O)[C@H]([C@@H](C)O)NC(=O)[C@@H]2CCCN2C(=O)CN(C)C1=O [3BP-4607, nBu-CAyl-[Cys(tMeBn(DOTA-AET))-Nmg-Pro-Thr-Gln-Phe-Cys]-OH] ({NHBu-CO}-C[Sar]PTQFC-OH; linker 1-7 via TBMB(SCH2CH2NH-DOTA)) | < 10 | < 10 | – | < 10 | –
15 | CCCC[C@H](NC(=O)CCC(=O)NCCCOCCOCCOCCCNC(=O)CCC(C(=O)O)N1CCN(CC(=O)O)CCN(CC(=O)O)CC1)C(=O)N[C@H]1CSCc2cccc(c2)CSCC(C(=O)O)NC(=O)[C@H](Cc2ccccc2)NC(=O)[C@H](CCC(N)=O)NC(=O)[C@H]([C@@H](C)O)NC(=O)[C@@H]2CCCN2C(=O)[C@@H]2CCCN2C1=O (stereo partly drawn) [3BP-4714, NODAGA-Ttds-Nle-[Cys(3MeBn)-Pro-Pro-Thr-Glu-Phe-Cys]-OH] | 10 to 79.4 | – | – | – | tissue uptake at 0.25 h ([4]; blood pool surrogate (BPS)): 1.52 %ID/g; tissue uptake at 1 h ([4]; blood pool surrogate (BPS)): 0.65 %ID/g; tissue uptake at 3 h ([4]; blood pool surrogate (BPS)): 0.32 %ID/g; tissue uptake at 0.25 h ([4]; kidneys): 5 %ID/g; tissue uptake at 1 h ([4]; kidneys): 3.82 %ID/g; tissue uptake at 3 h ([4]; kidneys): 3.83 %ID/g; tissue uptake at 0.25 h ([4]; tumor): 5.15 %ID/g; tissue uptake at 1 h ([4]; tumor): 5.44 %ID/g; tissue uptake at 3 h ([4]; tumor): 5.49 %ID/g; IC50 ([3]; pIC50 Category (activity), Recombinant human FAP): 10 to 79.4 nM
16 | CCCCCC(=O)N[C@H]1CSCc2cc(CSCCNC(=O)CCC(=O)NCCCOCCOCCOCCCNC(=O)CCC(=O)NCCCOCCOCCOCCCNC(=O)CCC(=O)NCCCOCCOCCOCCCNC(=O)CCC(=O)NCCCOCCOCCOCCCNC(=O)c3ccc4c(c3)C(=O)OC43c4ccc(N)c(S(=O)(=O)O)c4Oc4c3ccc(N)c4S(=O)(=O)O)cc(c2)CSC[C@@H](C(=O)O)NC(=O)[C@H](Cc2ccccc2)NC(=O)[C@H](CCC(N)=O)NC(=O)[C@H]([C@@H](C)O)NC(=O)[C@@H]2CCCN2C(=O)[C@@H]2CCCN2C1=O [3BP-4232, Hex--[C(tMeBn(AF488--Ttds--Ttds--Ttds--Ttds--AET))-PPTQFC]-OH] | – | 100 to 794 | – | – | –
